Assay results from ChEMBL document CHEMBL2169751, “Synthesis and biological evaluation of novel pyrazole derivatives with anticancer activity” (2011).

The compounds below were run on Mycobacterium tuberculosis (assay: Antimycobacterial activity against Mycobacterium tuberculosis H37Rv ATCC 27294 after 7 days by Resazurin assay).
Assay type: functional
Set-up: concentration or dose not given beside the values

| SMILES | inhibition (INH) [%] |
| --- | --- |
| O=C(NNC(=O)c1cnc2c(C(F)(F)F)cccc2c1O)Nc1cccc(Cl)c1 | <90 |
| O=C(N/N=C/c1ccc(OC(F)(F)C(F)F)cc1)c1cnc2c(C(F)(F)F)cccc2c1O | <90 |
| COc1ccc(/C=N/NC(=O)c2cnc3c(C(F)(F)F)cccc3c2O)c(F)c1 | 95 |
| CO[C@H]1/C=C/O[C@@]2(C)Oc3c(C)c(O)c4c(O)c(c(/C=N/N5CCN(C)CC5)c(O)c4c3C2=O)NC(=O)/C(C)=C\C=C\[C@H](C)[C@H](O)[C@@H](C)[C@@H](O)[C@@H](C)[C@H](OC(C)=O)[C@@H]1C [RIFAMPIN] | 95 |
| Cc1cccc2c(/C=N/NC(=O)c3cnc4c(C(F)(F)F)cccc4c3O)c[nH]c12 | 95 |
| CCc1ccc(NC(=O)NNC(=O)c2cnc3c(C(F)(F)F)cccc3c2O)cc1 | <90 |
| Cn1nnc2cc(/C=N\NC(=O)c3cnc4c(C(F)(F)F)cccc4c3O)ccc21 | <90 |
| CSc1ccccc1/C=N/NC(=O)c1cnc2c(C(F)(F)F)cccc2c1O | 0 |
| Cc1cc(C)cc(NC(=O)NNC(=O)c2cnc3c(C(F)(F)F)cccc3c2O)c1 | <90 |
| COc1ccc(NC(=S)NNC(=O)c2cnc3c(C(F)(F)F)cccc3c2O)cc1 | <90 |
| COc1ccc2[nH]cc(/C=N/NC(=O)c3cnc4c(C(F)(F)F)cccc4c3O)c2c1 | 95 |
| O=C(NNC(=S)Nc1ccccc1F)c1cnc2c(C(F)(F)F)cccc2c1O | 95 |
| COC(=O)Cc1cc(/C=N/NC(=O)c2cnc3c(C(F)(F)F)cccc3c2O)co1 | <90 |
| Cc1ccc(NC(=O)NNC(=O)c2cnc3c(C(F)(F)F)cccc3c2O)cc1 | 90 |
| O=C(NNC(=S)Nc1cccnc1)c1cnc2c(C(F)(F)F)cccc2c1O | 0 |
| O=C(N/N=C/c1cc(F)ccc1O)c1cnc2c(C(F)(F)F)cccc2c1O | <90 |
| Cc1[nH]cnc1/C=N/NC(=O)c1cnc2c(C(F)(F)F)cccc2c1O | 90 |
| Cc1ccc(NC(=S)NNC(=O)c2cnc3c(C(F)(F)F)cccc3c2O)cc1 | 0 |
| O=C(NNC(=S)Nc1cccc(Cl)c1)c1cnc2c(C(F)(F)F)cccc2c1O | <90 |
| COc1ccc(/C=N/NC(=O)c2cnc3c(C(F)(F)F)cccc3c2O)cc1O | <90 |
| Cc1ccc(/C=N/NC(=O)c2cnc3c(C(F)(F)F)cccc3c2O)cc1 | <90 |
| O=C(N/N=C/c1cnc[nH]1)c1cnc2c(C(F)(F)F)cccc2c1O | 90 |
| O=C(N/N=C/c1ccncc1)c1cnc2c(C(F)(F)F)cccc2c1O | 0 |
| NNC(=O)c1ccncc1 [ISONIAZID] | 95 |
| COc1ccc(NC(=O)NNC(=O)c2cnc3c(C(F)(F)F)cccc3c2O)cc1 | 90 |
| O=C(N/N=C/c1ccc2c(c1)CCO2)c1cnc2c(C(F)(F)F)cccc2c1O | 0 |
| Cn1cccc1/C=N\NC(=O)c1cnc2c(C(F)(F)F)cccc2c1O | 90 |
| COc1ccc(/C=N/NC(=O)c2cnc3c(C(F)(F)F)cccc3c2O)cc1 | 90 |
